Results on two compounds are retold here after paper PMC7270110, “Labeled oxytocin administered via the intranasal route reaches the brain in rhesus macaques” (Nature Communications, 2020).

Data set [1] in a line: CSF concentration of endogenous d0OT by LC-MS/MS. It counts as in vivo, rhesus macaques (Macaca mulatta). As to the method: The six monkeys were dosed once a week, for 4 consecutive weeks, with each DOSE–ROUTE condition of d5OT (40 IU IN, 40 IU IV, 80 IU IN, or 80 IU IV). Each DOSE–ROUTE condition was assigned using a Latin square randomization (Table 4). Sessions were separated by at least 6 days. During each session, CSF (750 µl) and blood (5 ml) samples were drawn immediately prior to (T = 0) and following (T = 60 and 120 min) each administration of d5OT.
Monkeys were divided into three groups, each with two monkeys; each group received the following in a terminal study at the 5th week: Group 1 (Monkeys ID# 1 and ID# 5) received 40 IU of d5OT IN, Group 2 received 80 IU of d5OT IN (Monkeys ID# 2 and ID# 4) and Group 3 received 80 IU of d5OT IV (Monkeys ID# 3 and ID# 6). Animals were perfused on average, 140 ± 7 (mean ± SD) min after d5OT administration (range = 135–149 min) (Table 4). Plasma and CSF were drawn just before administration of d5OT, at the midpoint between d5OT administration and perfusion (~60 min post-d5OT administration), and just before perfusion.
Chemicals: An unlabeled standard for d0OT and deuterated standard for d5OT were purchased from Sigma-Aldrich (St. Louis, MO); d10OT was purchased for use as an internal standard through a custom order from Cayman Chemical (Ann Arbor, MI). All other reagents were commercially available, and we purchased LC or MS grade chemicals when available. Plasma and CSF sample preparation for LC–MS/MS analysis. CSF and plasma samples were collected as described above. Using 15 ml polystyrene tubes, 1.0 ml of each standard, quality control (QC), or plasma sample was combined with 30 µl of internal standard mixture (34 ng/ml d10OT in 50:50 acetonitrile (ACN):water, v–v) and incubated for 20 min on ice. Volumes used for CSF samples ranged from 0.4 to 1.0 ml, depending on sample availability. CSF samples <1.0 ml were brought to a final volume of 1.0 ml using charcoal-stripped serum, prior to addition of internal standard. To each tube, 2 ml of ice-cold ACN was added, vortexed thoroughly, and centrifuged at 2500 × g for 10 min at 4 °C. The supernatants were transferred to new 13 mm × 100 mm polypropylene tubes and evaporated in a 37 °C water bath, under forced air, to a volume of <1 ml. […]
Solid-phase extraction (SPE) columns (Strata-X-Drug B, 60 mg/6 ml, Phenomenex, Torrance, CA) were conditioned prior to use by adding 2 ml of methanol, followed by 2 ml of water, and 2 ml of 0.2 M ammonium acetate (pH 3.0) in water; each was allowed to flow through by gravity before the next was added. […] After a 15 min incubation at 4 °C, plates were filtered into microtiter plates (Shimadzu, Kyoto, Japan) using a positive pressure manifold (8 min at 5 psi, followed by 15 s at 15 psi; Biotage, Uppsala, Sweden), and analyzed. […]

The conditions of data set [2]: nonhuman primate, cited from earlier work. Here is the method:
[…] For IV administration, 1 ml was administered via a peripheral IV catheter. For IN administration, an IN Mucosal Atomization Device [MAD, Teleflex Medical, Research Triangle Park, NC] was used. This same device was used in our previous nonhuman primate study. […] Of not ...

For data set [3] the following is noted: 60 min, previous study, cited from earlier work. Here is the method:
This study has several limitations. The limit of quantification (100 pg/ml) and between subject variability for d5OT precluded comparisons of CSF concentrations of d5OT across routes of administration (IN vs. IV), or across time (60 vs. 120 min), for a given route. […] For example, mean plasma concentration of d5OT at 60 min in the IV condition was 1992 ± 476 pg/ml in the present study and 3306 ± 1162 pg/ml in the previous st ...

Each structure is given as a SMILES string. Several values for one entry are separate records, joined by “and”; a condition that tells them apart may be missing. Equal entries are not always repeated.

Consider `CC[C@H](C)[C@@H]1NC(=O)[C@H](Cc2ccc(O)cc2)NC(=O)[C@@H](N)CSSC[C@@H](C(=O)N2CCC[C@H]2C(=O)N[C@@H](CC(C)C)C(=O)NCC(N)=O)NC(=O)[C@H](CC(N)=O)NC(=O)[C@H](CCC(N)=O)NC1=O` [OT, oxytocin], for which the “CSF concentrations of d0OT at necropsy” value was “not quantified” in data set [1] (40 IU IN condition, monkey #1); 12 pg/mL in data set [1] (40 IU IN condition, one monkey); 16 pg/mL and 10 pg/mL in data set [1] (80 IU IN condition, two monkeys, listed as d0OT); 16 pg/mL and 14 pg/mL in data set [1] (80 IU IV condition, two monkeys, listed as d0OT). Also, in data set [2] (IN administration of unlabeled OT with a different IN device), the “Concentration of CSF OT” value is “no increased concentration”. Besides, in data set [2] (OT 48 IU, MAD spray and nebulizer), the “CSF OT concentrations” value is recorded as “significant elevations”.
Consider `CC[C@H](C)[C@@H]1NC(=O)[C@H](Cc2ccc(O)cc2)NC(=O)[C@@H](N)CSSC[C@@H](C(=O)N2CCC[C@H]2C(=O)N[C@@H](CC(C)C)C(=O)NCC(N)=O)NC(=O)[C@H](CC(N)=O)NC(=O)[C@H](CCC(N)=O)NC1=O` [d5OT], for which the “Plasma d5OT” value in data set [3] (80 IU IN condition) was 615 ± 474 pg/mL. The “Mean plasma concentration of d5OT” value in data set [3] (IV condition) was 3.306 ± 1.162 ng/mL.
